According to ChEMBL document CHEMBL1201862, “PubChem BioAssay data set” (2004):
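Five compound concentrations were applied to cells in 96-well plates for 48 hours; endpoints were derived by simple linear interpolation of the resulting dose-response curve. GI50: concentration for 50% inhibition of growth.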 The source made the active and inactive calls. Cut-off read from the data, not from the text of the source: active = GI50 up to about 1.1 µM and inactive = higher.

Experiments:
Assay in all cases: NCI-60 cell line screen, 48 h
[1] = test system: NCI-H460
[2] = test system: OVCAR-5
[3] = test system: SK-OV-3
[4] = test system: UACC-257
[5] = test system: SK-MEL-5
[6] = test system: IGROV-1
[7] = test system: HCT-116
[8] = test system: UO-31
[9] = test system: K562
[10] = test system: COLO 205
[11] = test system: SF-539
[12] = test system: 786-0
[13] = test system: M14
[14] = test system: LOX IMVI
[15] = test system: CCRF-CEM
[16] = test system: KM12
[17] = test system: NCI-H23
[18] = test system: HT-29

Measured: GI50

COC(=O)/C=C(\C)CC/C=C(\C)CCC(O)C(C)(C)O (stereo unspecified)
inactive: [1] 19.8 µM | [2] 60.4 µM | [3] > 100 µM | [4] 36.4 µM | [5] 16.6 µM | [6] 25.8 µM | [7] 20.8 µM | [8] 39.2 µM | [9] 26.1 µM | [10] 19.7 µM | [11] 18.7 µM | [12] 19.4 µM | [13] 27.1 µM | [14] 16.2 µM | [15] 15.5 µM | [16] 13.9 µM | [17] 29.2 µM | [18] 31.4 µM

c1ccc(-c2nnc3nn4c(-c5ccccc5)cnnc4c3c2-c2ccccc2)cc1
inactive: [1] 75.7 µM | [2] > 100 µM | [4] 96.8 µM | [5] 67.1 µM | [7] 63.4 µM | [8] 23.2 µM | [9] 75 µM | [11] 26.3 µM | [13] > 100 µM | [14] > 100 µM | [15] > 100 µM | [16] > 100 µM | [17] > 100 µM | [18] 95.3 µM
active: [12] 0.0794 µM

CCCc1nn(C)c(CCC(=O)N(Cc2ccccc2)Cc2ccccc2)c1CC
inactive: [1] > 100 µM | [2] > 100 µM | [3] > 100 µM | [4] > 100 µM | [5] > 100 µM | [6] > 100 µM | [7] > 100 µM | [8] > 100 µM | [10] > 100 µM | [11] > 100 µM | [12] > 100 µM | [13] > 100 µM | [14] > 100 µM | [15] > 100 µM | [16] > 100 µM | [17] > 100 µM | [18] > 100 µM

C1=CC2CCC1CN2CCC1CNc2ccccc21 (stereo unspecified)
inactive: [2] > 100 µM | [3] > 100 µM | [4] > 100 µM | [6] > 100 µM | [7] > 100 µM | [8] 64.9 µM | [9] > 100 µM | [10] > 10 µM | [11] > 100 µM | [12] > 100 µM | [13] > 100 µM | [14] > 100 µM | [15] > 100 µM | [16] > 100 µM | [17] > 100 µM | [18] > 100 µM

COC(=O)/C=C1/CCC2[C@@H](C(=O)CC3[C@]2(C)CCC[C@@]3(C)C(=O)OC)C1C (stereo partly specified)
inactive: [1] 14.2 µM | [2] 20 µM | [3] 30.9 µM | [4] 10.4 µM | [5] 5.69 µM | [6] 20.2 µM | [7] 5.79 µM | [8] 15.1 µM | [9] 3.18 µM | [10] 5.57 µM | [11] 14.9 µM | [12] 14.9 µM | [13] 13.2 µM | [15] 3.56 µM | [16] 12.6 µM | [17] 11.2 µM | [18] 5.64 µM

Cc1cc(O)nc(NNC(C#N)c2ccccc2O)n1 (stereo unspecified)
inactive: [1] 10.5 µM | [2] 58.6 µM | [3] 39.4 µM | [4] 39 µM | [5] 19.9 µM | [6] 21 µM | [7] 19.3 µM | [8] 18.5 µM | [9] 41.7 µM | [10] 31 µM | [11] 10.4 µM | [12] 19.8 µM | [14] 17.6 µM | [15] 13.6 µM | [16] 35.6 µM | [17] 22.7 µM | [18] 30.2 µM

COc1cc2c(c(OC)c1OC)-c1ccc(SC)c(=O)cc1C(CC(=O)Oc1cccc(F)c1)C2 (stereo unspecified)
active: [1] 0.212 µM | [3] 0.0385 µM | [5] 0.411 µM | [6] 0.787 µM | [7] 0.321 µM | [8] 0.753 µM | [9] 0.149 µM | [10] 0.153 µM | [11] 0.111 µM | [12] 0.114 µM | [13] 0.242 µM | [14] 0.197 µM | [15] 0.228 µM | [16] 0.13 µM | [17] 0.259 µM | [18] 0.184 µM
inactive: [2] 4.55 µM | [4] 14.9 µM

COc1ccc(/C=N/N=C(\N)NO)cc1OC
inactive: [1] 33.7 µM | [2] 63 µM | [3] 45.1 µM | [4] 90.4 µM | [5] 15.2 µM | [6] 33.9 µM | [7] 42.8 µM | [8] 28.1 µM | [9] 11.5 µM | [10] 37.5 µM | [11] 26.3 µM | [12] 31 µM | [13] 27.9 µM | [14] 30.3 µM | [15] 49.7 µM | [16] 52.7 µM | [17] > 100 µM | [18] 28.7 µM
